According to ChEMBL document CHEMBL4665825, “Paliasanines A-E, 3,4-Methylenedioxyquinoline Alkaloids Fused with a Phenyl-14-oxabicyclo[3.2.1]octane Unit from Melochia umbellata var. deglabrata” (J Nat Prod, 2020):
The source made the active and inactive calls. No cut-off for these calls is given here.

What was measured:
A549 = assay: Antiproliferative activity against human A549 cells assessed as reduction in cell viability after 72 hrs by SRB assay; assay type: functional, cell-based; details: A549, 72 h
MDA-MB-231 [1] = assay: Antiproliferative activity against human MDA-MB-231 cells assessed as reduction in cell viability after 72 hrs by SRB assay; assay type: functional, cell-based; details: MDA-MB-231, 72 h
MCF7 = assay: Antiproliferative activity against human MCF7 cells assessed as reduction in cell viability after 72 hrs by SRB assay; assay type: functional, cell-based; details: MCF7, 72 h
KB = assay: Antiproliferative activity against human KB cells assessed as reduction in cell viability after 72 hrs by SRB assay; assay type: functional, cell-based
[2] = Antiproliferative activity against human KB-VIN cells assessed as reduction in cell viability after 72 hrs by SRB assay; assay type: functional, cell-based; details: KBVIN
MDA-MB-231 [3] = assay: Induction of cell cycle arrest in human MDA-MB-231 cells assessed as accumulation at S phase at 21 uM measured after 24 hrs by propidium iodide staining based flow cytometry analysis; assay type: functional
[4] = Selectivity ratio of IC50 for antiproliferative activity against human KB cells to IC50 for antiproliferative activity against KB-VIN cells; assay type: functional
[5] = tested on: Human immunodeficiency virus 1; assay: Antiviral activity against HIV-1 NL4-3 infected in human MT4 cells measured on day 3 by Nano-Glo luciferase assay; assay type: functional, organism-based; details: time 3.0 day

SMILES | IC50 (A549) [µM] | IC50 (MDA-MB-231 [1]) [µM] | IC50 (MCF7) [µM] | IC50 (KB) [µM] | IC50 [2] [µM] | Activity (MDA-MB-231 [3]) | Ratio IC50 [4] | Activity [5]
COc1ccc(OC)c([C@]2(O)c3ccc4nc(C)c5c(c4c3[C@@H]3CC[C@H]2O3)OCO5)c1 | > 10 | > 10 | > 10 | > 10 | > 10 |  |  | 
CC1=CC(=O)CC(C)(C)[C@@H]1CC[C@H](C)O | > 10 | > 10 | > 10 | > 10 | > 10 |  |  | 
CCCCCCCCc1ccc(OC)c2[nH]c(C)c(OC)c(=O)c12 | > 10 | > 10 | > 10 | > 10 | > 10 |  |  | 
CCCCCCCC[C@H]1CCC(=O)c2[nH]c(C)c(OC)c(=O)c21 | 8.4 | 6.7 | 6.4 | 17.7 | 8.6 | Active | 2 | 
CC(=O)/C=C/[C@]1(O)C(C)(C)C[C@H](O)C[C@@]1(C)O | > 10 | > 10 | > 10 | > 10 | > 10 |  |  | 
CC1(C)C[C@H](O)C[C@@]2(C)OC(=O)C=C12 [LOLIOLIDE] | > 10 | > 10 | > 10 | > 10 | > 10 |  |  | 
CC1=CC(=O)CC(C)(C)[C@@]1(O)/C=C/[C@@H](C)O [BLUMENOL A] | > 10 | > 10 | > 10 | > 10 | > 10 |  |  | 

Further lines, with some results ahead:

IC50 (A549) [µM] | IC50 (MDA-MB-231 [1]) [µM] | IC50 (MCF7) [µM] | IC50 (KB) [µM] | SMILES | IC50 [2] [µM] | Activity (MDA-MB-231 [3]) | Ratio IC50 [4] | Activity [5]
5.9 | > 10 | 8.2 | > 10 | COc1ccc(OC)c([C@@]2(O)c3ccc4[nH]c(C)c(OC)c(=O)c4c3[C@@H]3CC[C@H]2O3)c1 | > 10 |  |  | 
> 10 | > 10 | > 10 | > 10 | COc1ccccc1[C@]1(O)c2ccc3nc(C)c4c(c3c2[C@@H]2CC[C@H]1O2)OCO4 | > 10 |  |  | 
> 10 | > 10 | > 10 | > 10 | CC(C)[C@@H]1NC(=O)[C@@H](NC(=O)/C=C/c2ccccc2)[C@H](C(C)C)Oc2ccc(cc2)/C=C\NC1=O | > 10 |  |  | 
0.0065 |  | 0.0135 | 0.0077 | CC(=O)O[C@H]1C(=O)[C@@]2(C)[C@H]([C@H](OC(=O)c3ccccc3)[C@]3(O)C[C@H](OC(=O)[C@H](O)[C@@H](NC(=O)c4ccccc4)c4ccccc4)C(C)=C1C3(C)C)[C@]1(OC(C)=O)CO[C@@H]1C[C@@H]2O [PACLITAXEL] | 2.35 |  |  | 
9.5 | > 10 | > 10 | > 10 | CC[C@@H](C)[C@@H]1NC(=O)[C@@H](NC(=O)[C@H](Cc2ccccc2)N(C)C)[C@H](C(C)C)Oc2ccc(cc2)/C=C\NC1=O | > 10 |  |  | 
6.6 | > 10 | 8 | > 10 | COc1ccccc1[C@@]1(O)c2ccc3[nH]c(C)c(OC)c(=O)c3c2[C@@H]2CC[C@H]1O2 | > 10 |  |  | 
> 10 | > 10 | > 10 | > 10 | COc1ccccc1[C@@]1(O)c2ccc3nc(C)c4c(c3c2[C@@H]2CC[C@H]1O2)OCO4 | > 10 |  |  | inactive
> 10 | > 10 | > 10 | > 10 | Cc1nc2ccc3c(c2c2c1OCO2)[C@@H]1CC[C@H](O)[C@@]3(c2ccccc2)O1 | > 10 |  |  | inactive
> 10 | > 10 | > 10 | > 10 | COc1ccc(OC)c([C@@]2(O)c3ccc4nc(C)c5c(c4c3[C@@H]3CC[C@H]2O3)OCO5)c1 | > 10 |  |  | inactive
